Patent US20230149493A1, “COMPOSITIONS AND METHODS FOR TREATING COVID-19 AND SYMPTOMS THEREOF” (YUVA BIOSCIENCES, INC., priority 2021, published 2023)

Test system: peripheral blood mononuclear cells (PBMCs)
Test: XF substrate oxidation stress test (Seahorse XFp, oxygen consumption rate)
Assay type: cell-based, human
Conditions: for basal respiration after blocking / maximal respiration after blocking: PBMCs of patients with COVID-19, BPTES 3 μM, etomoxir 4 μM, UK5099 2 μM
Protocol: Blood samples were obtained from the study participants. PBMCs were separated and plated on XFp eight-well polystyrene plates designed for the Seahorse XFp analyzer (Agilent Technologies, Santa Clara, Calif.) within 2 h. The Seahorse XFp analyzer (Agilent Technologies) was used to measure basal, ATP-linked, and maximal oxygen consumption rate (OCR); reserve capacity; and extracellular acidification rate (ECAR).
OCR, a measurement of mitochondrial respiration, and ECAR, which correlates to the number of protons released from the cell with potential contribution from glycolysis and the Krebs cycle, were measured in the presence of specific mitochondrial activators and inhibitors. Oligomycin (ATP synthase blocker) was used to measure ATP turnover and to determine proton leak; the mitochondrial uncoupler carbonyl cyanide 4-[trifluoromethoxy] phenylhydrazone (FCCP) was used to measure maximum respiratory function (maximal OCR).
Reserve capacity was calculated as maximal OCR minus the basal respiration.
For a measurement of basal respiration, three measurements were taken before injecting ATP synthase inhibitor oligomycin at 0.75 μM (final concentration). FCCP was then injected at 0.75 μM. Finally, a mixture of rotenone and antimycin A (1 μM) was injected. Mitochondrial basal respiration, proton leak, reserve capacity, and maximal respiration were measured after correcting for nonmitochondrial respiration.
OCR and ECAR rates were normalized to cell count for PBMCs.

Row | Structure (SMILES) | maximal respiration after blocking the glucose pathway (PBMCs of healthy controls (HC), before blocking=37±25) | basal respiration after blocking the glucose pathway (PBMCs of healthy controls (HC), before blocking=80±33) | basal respiration after blocking | maximal respiration after blocking | basal respiration after blocking the glucose pathway (PBMCs of patients with chest infection, before blocking=200±35) | maximal respiration after blocking the glucose pathway (PBMCs of patients with chest infection, before blocking=589±16)
1 | N#C/C(=C\c1cn(-c2ccccc2)c2ccccc12)C(=O)O [UK5099] | 34±5 | 52±28 | 128±5 | 254±24 | 195±33 | 558±19
2 | CCOC(=O)[C@@]1(CCCCCCOc2ccc(Cl)cc2)CO1 [etomoxir] |  |  | 128±2 | 255±16 |  | 
